Measurements taken from US6355785B1, “Guanosine-rich oligonucleotide integrase inhibitors” (Aronex Pharmaceuticals, Inc., priority 1993, dated 2002).
Where “and” joins values, the source holds several entries; their conditions need not be identical. Equal values may be shown once. Read-outs that look alike come from different tables or passages of the source.

Tests used:
HIV-1 infected PBMCs = conditions: SE Asia isolate
[1] = system: HIV-1 strains (SKI, RF, DV, IIIB, ADP/141); test: microbe, parasite or virus in culture; assay type: cell-based; conditions: for IC90: read-out: IC90 (cpe assay)
[2] = design: species or system cynomolgus monkeys; conditions: cynomolgus monkey, in vivo
Experimental: Dosing. Twelve experimentally naive cynomolgus monkeys were assigned to four groups of three animals each. Prior to dosing, each animal was lightly sedated with a combination of ketamine (1 0 mg/kg) and diazepam (0.5 mg/kg), and a catheter was introduced into the femoral artery for recording central arterial pressure. Monkeys were given a single intravenous infusion of 5, 20, or 50 mg AR177/kg or saline over ten minutes through a cephalic vein catheter using a Harvard infusion pump. Arterial blood samples were drawn at −10, +10, +20, +40, +60 and +120 minutes relative to the initiation of infusion into EDTA-containing tubes for hematology, complement factors, coagulation assay, serum chemistry, and plasma AR177 determination. At 24 hours post-infusion, blood was drawn via the femoral vein into EDTA-containing tubes for these same parameters. The concentration of AR177 in dosing solutions was confirmed post experiment by absorbance at 280 nm on a spectrophotometer. For the determination of AR177 by HPLC, the plasma fraction was obtained by low speed centrifugation of blood, and stored at −20° C. until used. Electrocardiograms (ECGs), central pressure, and heart rate were recorded continuously for 120 minutes following the initiation of doing. Table E-1 summarizes the study design. The animals were observed twice daily pharmacotoxic signs and general health beginning two days before dosing and for seven days following dosing. The monkeys were not necropsied at the end of the study.
Hematology and coagulation parameters. The following are determined: red blood cell count and morphology, total and differential white blood cells, hemoglobin, hematocrit, prothrombin time, fibrinogen, mean cell hemoglobin, mean corpuscular volume, mean corpuscular hemoglobin concentration, platelet count, and activated partial thromboplastin time. Hematology parameters were determined at Sierra Nevada Laboratories (Reno, Nev.).

HIV-1 clinical isolates = test: microbe, parasite or virus in culture; assay type: cell-based; conditions: PBLs, read-out: IC50 viral production

**Q.** Which “% CD4” value (HIV-1 infected PBMCs; drug 1.0 μM) does the source give for “5′-gtggtgggtgggtgggt-3′ [T30177] (GTGGTGGGTGGGTGGGT; phosphorothioate termini, further chemistry not given here) [pPT version of parent compound I100-15, 17 mer]” here?
**A.** 12%

**Q.** And the “% CD8” value (HIV-1 infected PBMCs; drug 1.0 μM)?
**A.** 90%

**Q.** What about the “CD4/CD8 Ratio” value (HIV-1 infected PBMCs; drug 1.0 μM) of the same substance?
**A.** 0.13

**Q.** And the “% CD4” value (HIV-1 infected PBMCs; drug 5.0 μM)?
**A.** 29%

**Q.** What about the “% CD8” value (HIV-1 infected PBMCs; drug 5.0 μM) of the same substance?
**A.** 82%

**Q.** And the “CD4/CD8 Ratio” value (HIV-1 infected PBMCs; drug 5.0 μM)?
**A.** 0.35

**Q.** And the “% CD4” value (HIV-1 infected PBMCs; drug 10.0 μM)?
**A.** 29%

**Q.** What about the “% CD8” value (HIV-1 infected PBMCs; drug 10.0 μM) of the same substance?
**A.** 82%

**Q.** And the “CD4/CD8 Ratio” value (HIV-1 infected PBMCs; drug 10.0 μM)?
**A.** 0.35

**Q.** What about the “increase in IC50 when MOI of HIV-1RF changed from 0.01 to 1.28” value ([1]; CEM-SS) of the same substance?
**A.** 14 fold

**Q.** And the IC50 ([1]; HIV-1 DV, SUP T1, read-out: IC50 virus production)?
**A.** 60 ± 4 nM

**Q.** What about the IC50 ([1]; HIV-1 IIIB, AA5, read-out: IC50 virus production) of the same substance?
**A.** < 320 nM

**Q.** And the IC50 ([1]; HIV-1 IIIB, CEM-SS or MT4, read-out: Antiviral Assay IC50 IIIB)?
**A.** 2830 nM

**Q.** And the IC50 ([1]; HIV-1 IIIB, CEM-SS, read-out: IC50 virus production)?
**A.** 2800 nM and 2830 nM

**Q.** What about the IC50 ([1]; HIV-1 IIIB, MT2, read-out: IC50 virus production) of the same substance?
**A.** 1940 ± 120 nM

**Q.** What about the IC50 ([1]; HIV-1 IIIB, MT4, read-out: IC50 virus production) of the same substance?
**A.** 150 ± 20 nM

**Q.** And the “TI (therapeutic index)” value ([1]; HIV-1RF in MT2 cells)?
**A.** 226

**Q.** And the IC50 ([1]; HIV-1 RF, CEM-SS or MT4, read-out: Antiviral Assay IC50 RF)?
**A.** 75 nM

**Q.** What about the IC50 ([1]; HIV-1 RF, CEM-SS, MOI 0.01, read-out: IC50 virus production) of the same substance?
**A.** 75 nM

**Q.** And the IC50 ([1]; HIV-1 RF, MT4, read-out: IC50 virus production)?
**A.** 37 ± 30 nM

**Q.** And the “TI (therapeutic index)” value ([1]; HIV-1SKI in CEM-SS cells)?
**A.** 3680

**Q.** And the IC50 ([1]; HIV-1 SKI, CEM-SS or MT4, read-out: Antiviral Assay IC50 SKI)?
**A.** 25 nM

**Q.** And the IC50 ([1]; HIV-1 SKI, CEM-SS, MOI 0.01, read-out: IC50 virus production)?
**A.** 25 ± 6 nM

**Q.** And the IC50 ([1]; HIV-1 SKI, MT2, read-out: IC50 virus production)?
**A.** 60 ± 1 nM

**Q.** What about the IC50 ([1]; IIIB (MT4), MOI 0.01, read-out: IC50 (cpe assay)) of the same substance?
**A.** 2700 nM

**Q.** What about the IC90 ([1]; IIIB (MT4), MOI 0.01) of the same substance?
**A.** 9200 nM

**Q.** And the IC50 ([1]; IIIB (MT4), MOI 0.02, read-out: IC50 (cpe assay))?
**A.** 3100 nM

**Q.** And the IC90 ([1]; IIIB (MT4), MOI 0.02)?
**A.** 6600 nM

**Q.** What about the IC50 ([1]; IIIB (MT4), MOI 0.3, read-out: IC50 (cpe assay)) of the same substance?
**A.** 3380 nM

**Q.** What about the IC90 ([1]; IIIB (MT4), MOI 0.3) of the same substance?
**A.** 7000 nM

**Q.** And the IC50 ([1]; IIIB (MT4), MOI 1, read-out: IC50 (cpe assay))?
**A.** 6800 nM

**Q.** What about the IC90 ([1]; IIIB (MT4), MOI 1) of the same substance?
**A.** 26000 nM

**Q.** What about the IC50 ([1]; RF (CEM-SS), MOI 0.01, read-out: IC50 (cpe assay)) of the same substance?
**A.** 200 nM

**Q.** And the IC90 ([1]; RF (CEM-SS), MOI 0.01)?
**A.** 500 nM

**Q.** What about the IC50 ([1]; RF (CEM-SS), MOI 0.02, read-out: IC50 (cpe assay)) of the same substance?
**A.** 410 nM

**Q.** And the IC90 ([1]; RF (CEM-SS), MOI 0.02)?
**A.** 1500 nM

**Q.** What about the IC90 ([1]; RF (CEM-SS), MOI 0.04) of the same substance?
**A.** 1560 nM

**Q.** And the IC50 ([1]; RF (CEM-SS), MOI 0.08, read-out: IC50 (cpe assay))?
**A.** 700 nM

**Q.** And the IC90 ([1]; RF (CEM-SS), MOI 0.08)?
**A.** 1560 nM

**Q.** And the IC50 ([1]; RF (CEM-SS), MOI 0.16, read-out: IC50 (cpe assay))?
**A.** 870 nM

**Q.** What about the IC90 ([1]; RF (CEM-SS), MOI 0.16) of the same substance?
**A.** 1600 nM

**Q.** What about the IC50 ([1]; RF (CEM-SS), MOI 0.32, read-out: IC50 (cpe assay)) of the same substance?
**A.** 1250 nM

**Q.** What about the IC90 ([1]; RF (CEM-SS), MOI 0.32) of the same substance?
**A.** 4700 nM

**Q.** And the IC50 ([1]; RF (CEM-SS), MOI 0.64, read-out: IC50 (cpe assay))?
**A.** 2640 nM

**Q.** And the IC90 ([1]; RF (CEM-SS), MOI 0.64)?
**A.** 4750 nM

**Q.** And the IC50 ([1]; RF (CEM-SS), MOI 1.28, read-out: IC50 (cpe assay))?
**A.** 2810 nM

**Q.** And the IC90 ([1]; RF (CEM-SS), MOI 1.28)?
**A.** 4770 nM

**Q.** What about the IC50 ([1]; anti-HIV-1 virus production, read-out: Cell Culture IC50) of the same substance?
**A.** 75 nM

**Q.** What about the “no effect plasma AR177 concentration versus aPTT” value [2] of the same substance?
**A.** 60-100 ug AR177/mL

**Q.** And the “plasma AR177 concentration at doubling of aPTT” value [2]?
**A.** 100-250 ug AR177/mL

**Q.** What about the “plasma AR177 concentration at tripling of aPTT” value [2] of the same substance?
**A.** 250-300 fig AR177/mL

**Q.** And the IC50 (HIV-1 clinical isolates; clinical isolate 942716)?
**A.** 860 ± 6 nM

**Q.** What about the IC50 (HIV-1 clinical isolates; clinical isolate 942751) of the same substance?
**A.** 380 ± 3 nM

**Q.** And the IC50 (HIV-1 clinical isolates; clinical isolate BAKI (SI))?
**A.** 230 ± 5 nM

**Q.** And the IC50 (HIV-1 clinical isolates; clinical isolate BLCH (NSI))?
**A.** 3080 ± 6 nM

**Q.** And the IC50 (HIV-1 clinical isolates; clinical isolate JOGA (NSI))?
**A.** 330 ± 4 nM

**Q.** And the IC50 (HIV-1 clinical isolates; clinical isolate N. Amer. #1)?
**A.** 250 ± 3 nM

**Q.** And the IC50 (HIV-1 clinical isolates; clinical isolate N. Amer. #2)?
**A.** 2920 ± 5 nM

**Q.** And the IC50 (HIV-1 clinical isolates; clinical isolate ROJO (SI))?
**A.** 3900 ± 20 nM

**Q.** What about the IC50 (HIV-1 clinical isolates; clinical isolate S. E. Asia) of the same substance?
**A.** 580 ± 3 nM

**Q.** What about the IC50 (HIV-1 clinical isolates; clinical isolate VIHU (NSI)) of the same substance?
**A.** 1300 ± 20 nM

**Q.** And the IC50 (HIV-1 clinical isolates; clinical isolate WEJO (SI))?
**A.** 300 ± 10 nM

**Q.** And the IC50 (HIV-1 clinical isolates; clinical isolate WOME (SI))?
**A.** 710 ± 2 nM
